Tested on: MRSA strain USA300
Experiment: SIC determination with partner beta-lactam antibiotics
Type: cell-based, Staphylococcus aureus
Protocol: Many compounds in the Examples, including Compound 155, synergize with a wide range of beta-lactam antibiotics as quantified by SIC determination, where the SIC is measured and defined in a manner identical to the MIC, […] being tested.

CCCCCCCCCCNCCC(=O)N[C@@H](CCCCN)C(=O)N(C)[C@@H]1C(=O)N[C@@H](C)C(=O)N[C@H](C(=O)N[C@@H](C)C(=O)N2CCC[C@H]2C(N)=O)Cc2ccc(O)c(c2)-c2cc1ccc2O.O=CO [Compound 155]
≤0.0156 µg/mL: Compound 155 SIC (MRSA strain USA300, media contains partner beta-lactam Cefdinir at 1/4x its MIC) | Compound 155 SIC (MRSA strain USA300, media contains partner beta-lactam Faropenem at 1/4x its MIC)
32: Fold reduction in Compound 155 MIC (MRSA strain USA300, partner beta-lactam Cefazolin at 1/4x its MIC) | Fold reduction in Compound 155 MIC (MRSA strain USA300, partner beta-lactam Cefepime at 1/4x its MIC) | Fold reduction in Compound 155 MIC (MRSA strain USA300, partner beta-lactam Cefotaxime at 1/4x its MIC) | Fold reduction in Compound 155 MIC (MRSA strain USA300, partner beta-lactam Cefpodoxime at 1/4x its MIC) | Fold reduction in Compound 155 MIC (MRSA strain USA300, partner beta-lactam Doripenem at 1/4x its MIC) | Fold reduction in Compound 155 MIC (MRSA strain USA300, partner beta-lactam Imipenem at 1/4x its MIC) | Fold reduction in Compound 155 MIC (MRSA strain USA300, partner beta-lactam Moxalactam at 1/4x its MIC) | Fold reduction in Compound 155 MIC (MRSA strain USA300, partner beta-lactam Oxacillin at 1/4x its MIC) | Fold reduction in Compound 155 MIC (MRSA strain USA300, partner beta-lactam Ticarcillin at 1/4x its MIC)
16: Fold reduction in Compound 155 MIC (MRSA strain USA300, partner beta-lactam Amoxicillin/Clav at 1/4x its MIC) | Fold reduction in Compound 155 MIC (MRSA strain USA300, partner beta-lactam Cefaclor at 1/4x its MIC) | Fold reduction in Compound 155 MIC (MRSA strain USA300, partner beta-lactam Cefamandole at 1/4x its MIC) | Fold reduction in Compound 155 MIC (MRSA strain USA300, partner beta-lactam Cefixime at 1/4x its MIC) | Fold reduction in Compound 155 MIC (MRSA strain USA300, partner beta-lactam Cefonicid at 1/4x its MIC) | Fold reduction in Compound 155 MIC (MRSA strain USA300, partner beta-lactam Cefoxitin at 1/4x its MIC) | Fold reduction in Compound 155 MIC (MRSA strain USA300, partner beta-lactam Cefprozil at 1/4x its MIC) | Fold reduction in Compound 155 MIC (MRSA strain USA300, partner beta-lactam Ceftizoxime at 1/4x its MIC) | Fold reduction in Compound 155 MIC (MRSA strain USA300, partner beta-lactam Ertapenem at 1/4x its MIC) | Fold reduction in Compound 155 MIC (MRSA strain USA300, partner beta-lactam Meropenem at 1/4x its MIC) | Fold reduction in Compound 155 MIC (MRSA strain USA300, partner beta-lactam Methicillin at 1/4x its MIC)
64: Fold reduction in Compound 155 MIC (MRSA strain USA300, partner beta-lactam Biapenem at 1/4x its MIC) | Fold reduction in Compound 155 MIC (MRSA strain USA300, partner beta-lactam Ceftriaxone at 1/4x its MIC) | Fold reduction in Compound 155 MIC (MRSA strain USA300, partner beta-lactam Cephalothin at 1/4x its MIC)
0.0625 µg/mL: Compound 155 SIC (MRSA strain USA300, media contains partner beta-lactam Biapenem at 1/4x its MIC) | Compound 155 SIC (MRSA strain USA300, media contains partner beta-lactam Ceftriaxone at 1/4x its MIC) | Compound 155 SIC (MRSA strain USA300, media contains partner beta-lactam Cephalothin at 1/4x its MIC)
1 µg/mL: Compound 155 SIC (MRSA strain USA300, media contains partner beta-lactam Ampicillin at 1/4x its MIC) | Compound 155 SIC (MRSA strain USA300, media contains partner beta-lactam Azlocillin at 1/4x its MIC) | Compound 155 SIC (MRSA strain USA300, media contains partner beta-lactam Mecillinam at 1/4x its MIC)
synergize: synergy with beta-lactam antibiotics as quantified by SIC determination (SIC less than or equal to 1/4 MIC means sum of the FICs ≤0.5, indicating synergy)
0.5 µg/mL: Compound 155 SIC (MRSA strain USA300, media contains partner beta-lactam Carbenicillin at 1/4x its MIC) | Compound 155 SIC (MRSA strain USA300, media contains partner beta-lactam Cefmetazole at 1/4x its MIC) | Compound 155 SIC (MRSA strain USA300, media contains partner beta-lactam Cefotetan at 1/4x its MIC) | Compound 155 SIC (MRSA strain USA300, media contains partner beta-lactam Ceftazidime at 1/4x its MIC) | Compound 155 SIC (MRSA strain USA300, media contains partner beta-lactam Mezlocillin at 1/4x its MIC) | Compound 155 SIC (MRSA strain USA300, media contains partner beta-lactam Piperacillin/tazobactam at 1/4x its MIC)
0.25 µg/mL: Compound 155 SIC (MRSA strain USA300, media contains partner beta-lactam Amoxicillin/Clav at 1/4x its MIC) | Compound 155 SIC (MRSA strain USA300, media contains partner beta-lactam Cefaclor at 1/4x its MIC) | Compound 155 SIC (MRSA strain USA300, media contains partner beta-lactam Cefamandole at 1/4x its MIC) | Compound 155 SIC (MRSA strain USA300, media contains partner beta-lactam Cefixime at 1/4x its MIC) | Compound 155 SIC (MRSA strain USA300, media contains partner beta-lactam Cefonicid at 1/4x its MIC) | Compound 155 SIC (MRSA strain USA300, media contains partner beta-lactam Cefoxitin at 1/4x its MIC) | Compound 155 SIC (MRSA strain USA300, media contains partner beta-lactam Cefprozil at 1/4x its MIC) | Compound 155 SIC (MRSA strain USA300, media contains partner beta-lactam Ceftizoxime at 1/4x its MIC) | Compound 155 SIC (MRSA strain USA300, media contains partner beta-lactam Ertapenem at 1/4x its MIC) | Compound 155 SIC (MRSA strain USA300, media contains partner beta-lactam Meropenem at 1/4x its MIC) | Compound 155 SIC (MRSA strain USA300, media contains partner beta-lactam Methicillin at 1/4x its MIC)
>256: Fold reduction in Compound 155 MIC (MRSA strain USA300, partner beta-lactam Cefdinir at 1/4x its MIC) | Fold reduction in Compound 155 MIC (MRSA strain USA300, partner beta-lactam Faropenem at 1/4x its MIC)
8: Fold reduction in Compound 155 MIC (MRSA strain USA300, partner beta-lactam Carbenicillin at 1/4x its MIC) | Fold reduction in Compound 155 MIC (MRSA strain USA300, partner beta-lactam Cefmetazole at 1/4x its MIC) | Fold reduction in Compound 155 MIC (MRSA strain USA300, partner beta-lactam Cefotetan at 1/4x its MIC) | Fold reduction in Compound 155 MIC (MRSA strain USA300, partner beta-lactam Ceftazidime at 1/4x its MIC) | Fold reduction in Compound 155 MIC (MRSA strain USA300, partner beta-lactam Mezlocillin at 1/4x its MIC) | Fold reduction in Compound 155 MIC (MRSA strain USA300, partner beta-lactam Piperacillin/tazobactam at 1/4x its MIC)
4 µg/mL: Compound 155 MIC (MRSA strain USA300, partner beta-lactam: None)
0.125 µg/mL: Compound 155 SIC (MRSA strain USA300, media contains partner beta-lactam Cefazolin at 1/4x its MIC) | Compound 155 SIC (MRSA strain USA300, media contains partner beta-lactam Cefepime at 1/4x its MIC) | Compound 155 SIC (MRSA strain USA300, media contains partner beta-lactam Cefotaxime at 1/4x its MIC) | Compound 155 SIC (MRSA strain USA300, media contains partner beta-lactam Cefpodoxime at 1/4x its MIC) | Compound 155 SIC (MRSA strain USA300, media contains partner beta-lactam Doripenem at 1/4x its MIC) | Compound 155 SIC (MRSA strain USA300, media contains partner beta-lactam Imipenem at 1/4x its MIC) | Compound 155 SIC (MRSA strain USA300, media contains partner beta-lactam Moxalactam at 1/4x its MIC) | Compound 155 SIC (MRSA strain USA300, media contains partner beta-lactam Oxacillin at 1/4x its MIC) | Compound 155 SIC (MRSA strain USA300, media contains partner beta-lactam Ticarcillin at 1/4x its MIC)
4: Fold reduction in Compound 155 MIC (MRSA strain USA300, partner beta-lactam Ampicillin at 1/4x its MIC) | Fold reduction in Compound 155 MIC (MRSA strain USA300, partner beta-lactam Azlocillin at 1/4x its MIC) | Fold reduction in Compound 155 MIC (MRSA strain USA300, partner beta-lactam Mecillinam at 1/4x its MIC)
